Source: the NIST ThermoML archive (doi:10.1021/je100715x)

Key:
[1] = xn = mol fraction of the nth substance listed; conditions: 101 kPa, Liquid; for viscosity: Capillary tube (Ostwald / Ubbelohde) method; for mass density: Vibrating tube method
[2] = refractive index (Na D-line) (dimensionless); xn = mol fraction of the nth substance listed; conditions: 101 kPa, Liquid, Standard Abbe refractometry

CCOC(=O)C(=O)OCC [diethyl ethanedioate] + CC(=O)c1ccccc1
Conditions | mass density, 303.15 K [kg/m3] | mass density, 308.15 K [kg/m3] | mass density, 313.15 K [kg/m3] | refractive index, 303.15 K | refractive index, 308.15 K | refractive index, 313.15 K | viscosity, 303.15 K [mPa·s] | viscosity, 308.15 K [mPa·s] | viscosity, 313.15 K [mPa·s]
[1], x1 = 0.0875 | 1024.1 | 1021 | 1017.4 | – | – | – | 1.557 | 1.405 | 1.308
[1], x1 = 0.1478 | 1026.7 | 1023.6 | 1019.9 | – | – | – | 1.578 | 1.418 | 1.317
[1], x1 = 0.2538 | 1031.2 | 1027.9 | 1024 | – | – | – | 1.61 | 1.439 | 1.333
[1], x1 = 0.3443 | 1034.9 | 1031.5 | 1027.5 | – | – | – | 1.628 | 1.454 | 1.344
[1], x1 = 0.4591 | 1039.9 | 1036.2 | 1032 | – | – | – | 1.645 | 1.467 | 1.355
[1], x1 = 0.5501 | 1044 | 1040.1 | 1035.7 | – | – | – | 1.655 | 1.477 | 1.362
[1], x1 = 0.6601 | 1049.3 | 1045.2 | 1040.2 | – | – | – | 1.657 | 1.485 | 1.366
[1], x1 = 0.7601 | 1054.3 | 1049.8 | 1044.5 | – | – | – | 1.654 | 1.487 | 1.37
[1], x1 = 0.8846 | 1060.6 | 1055.6 | 1049.9 | – | – | – | 1.648 | 1.489 | 1.373
[1], x1 = 0.95 | 1063.8 | 1058.5 | 1052.5 | – | – | – | 1.635 | 1.49 | 1.375
[2], x1 = 0.0875 | – | – | – | 1.5171 | 1.5151 | 1.5133 | – | – | –
[2], x1 = 0.1478 | – | – | – | 1.5087 | 1.5068 | 1.5053 | – | – | –
[2], x1 = 0.2538 | – | – | – | 1.4945 | 1.4928 | 1.4912 | – | – | –
[2], x1 = 0.3443 | – | – | – | 1.4826 | 1.4811 | 1.4796 | – | – | –
[2], x1 = 0.4591 | – | – | – | 1.4685 | 1.4671 | 1.4656 | – | – | –
[2], x1 = 0.5501 | – | – | – | 1.4574 | 1.456 | 1.4544 | – | – | –
[2], x1 = 0.6601 | – | – | – | 1.4439 | 1.4424 | 1.4411 | – | – | –
[2], x1 = 0.7601 | – | – | – | 1.4325 | 1.4309 | 1.4293 | – | – | –
[2], x1 = 0.8846 | – | – | – | 1.4187 | 1.4167 | 1.4154 | – | – | –
[2], x1 = 0.95 | – | – | – | 1.4117 | 1.4095 | 1.4079 | – | – | –

CCOC(=O)C(=O)OCC [diethyl ethanedioate] + CCC(=O)CC
Conditions | mass density, 303.15 K [kg/m3] | mass density, 308.15 K [kg/m3] | mass density, 313.15 K [kg/m3] | refractive index, 303.15 K | refractive index, 308.15 K | refractive index, 313.15 K | viscosity, 303.15 K [mPa·s] | viscosity, 308.15 K [mPa·s] | viscosity, 313.15 K [mPa·s]
[1], x1 = 0.0865 | 834 | 829.9 | 825.8 | – | – | – | 0.485 | 0.452 | 0.44
[1], x1 = 0.1436 | 852 | 847.8 | 843.6 | – | – | – | 0.527 | 0.491 | 0.478
[1], x1 = 0.2448 | 882.5 | 878.2 | 873.8 | – | – | – | 0.61 | 0.567 | 0.551
[1], x1 = 0.3389 | 909.4 | 905 | 900.5 | – | – | – | 0.701 | 0.65 | 0.627
[1], x1 = 0.4495 | 939.4 | 934.8 | 930.1 | – | – | – | 0.818 | 0.759 | 0.726
[1], x1 = 0.5325 | 960.8 | 956.1 | 951.2 | – | – | – | 0.916 | 0.848 | 0.808
[1], x1 = 0.6518 | 990 | 985.1 | 979.9 | – | – | – | 1.071 | 0.987 | 0.936
[1], x1 = 0.7587 | 1014.7 | 1009.6 | 1004.2 | – | – | – | 1.224 | 1.121 | 1.061
[1], x1 = 0.8659 | 1038.2 | 1032.9 | 1027.2 | – | – | – | 1.395 | 1.274 | 1.196
[1], x1 = 0.9438 | 1054.6 | 1049.1 | 1043.3 | – | – | – | 1.525 | 1.391 | 1.295
[2], x1 = 0.0865 | – | – | – | 1.3901 | 1.3881 | 1.3861 | – | – | –
[2], x1 = 0.1436 | – | – | – | 1.3916 | 1.3897 | 1.3877 | – | – | –
[2], x1 = 0.2448 | – | – | – | 1.3941 | 1.3924 | 1.3906 | – | – | –
[2], x1 = 0.3389 | – | – | – | 1.3962 | 1.3947 | 1.393 | – | – | –
[2], x1 = 0.4495 | – | – | – | 1.3984 | 1.3969 | 1.3954 | – | – | –
[2], x1 = 0.5325 | – | – | – | 1.3999 | 1.3983 | 1.3969 | – | – | –
[2], x1 = 0.6518 | – | – | – | 1.4018 | 1.4 | 1.3986 | – | – | –
[2], x1 = 0.7587 | – | – | – | 1.4033 | 1.4014 | 1.3998 | – | – | –
[2], x1 = 0.8659 | – | – | – | 1.4047 | 1.4026 | 1.4008 | – | – | –
[2], x1 = 0.9438 | – | – | – | 1.4056 | 1.4034 | 1.4015 | – | – | –
